According to patent US20260138961A1, “MODULATORS OF MITOCHONDRIAL DNA REPLICATION” (Pretzel Therapeutics, Inc., priority 2022, published 2026):

Each molecule was assayed against T1, POLγ W748S + E1143G (Homo sapiens, UniProt P54098, E1143G/W748S) (assay: DNA polymerization assay, W748S + E1143G mutant). Conditions: stimulation of polymerase activity, primed M13mp18 ssDNA, 37° C. 2 hours.
T1 sequence (P54098 1-1239 W748S/E1143G): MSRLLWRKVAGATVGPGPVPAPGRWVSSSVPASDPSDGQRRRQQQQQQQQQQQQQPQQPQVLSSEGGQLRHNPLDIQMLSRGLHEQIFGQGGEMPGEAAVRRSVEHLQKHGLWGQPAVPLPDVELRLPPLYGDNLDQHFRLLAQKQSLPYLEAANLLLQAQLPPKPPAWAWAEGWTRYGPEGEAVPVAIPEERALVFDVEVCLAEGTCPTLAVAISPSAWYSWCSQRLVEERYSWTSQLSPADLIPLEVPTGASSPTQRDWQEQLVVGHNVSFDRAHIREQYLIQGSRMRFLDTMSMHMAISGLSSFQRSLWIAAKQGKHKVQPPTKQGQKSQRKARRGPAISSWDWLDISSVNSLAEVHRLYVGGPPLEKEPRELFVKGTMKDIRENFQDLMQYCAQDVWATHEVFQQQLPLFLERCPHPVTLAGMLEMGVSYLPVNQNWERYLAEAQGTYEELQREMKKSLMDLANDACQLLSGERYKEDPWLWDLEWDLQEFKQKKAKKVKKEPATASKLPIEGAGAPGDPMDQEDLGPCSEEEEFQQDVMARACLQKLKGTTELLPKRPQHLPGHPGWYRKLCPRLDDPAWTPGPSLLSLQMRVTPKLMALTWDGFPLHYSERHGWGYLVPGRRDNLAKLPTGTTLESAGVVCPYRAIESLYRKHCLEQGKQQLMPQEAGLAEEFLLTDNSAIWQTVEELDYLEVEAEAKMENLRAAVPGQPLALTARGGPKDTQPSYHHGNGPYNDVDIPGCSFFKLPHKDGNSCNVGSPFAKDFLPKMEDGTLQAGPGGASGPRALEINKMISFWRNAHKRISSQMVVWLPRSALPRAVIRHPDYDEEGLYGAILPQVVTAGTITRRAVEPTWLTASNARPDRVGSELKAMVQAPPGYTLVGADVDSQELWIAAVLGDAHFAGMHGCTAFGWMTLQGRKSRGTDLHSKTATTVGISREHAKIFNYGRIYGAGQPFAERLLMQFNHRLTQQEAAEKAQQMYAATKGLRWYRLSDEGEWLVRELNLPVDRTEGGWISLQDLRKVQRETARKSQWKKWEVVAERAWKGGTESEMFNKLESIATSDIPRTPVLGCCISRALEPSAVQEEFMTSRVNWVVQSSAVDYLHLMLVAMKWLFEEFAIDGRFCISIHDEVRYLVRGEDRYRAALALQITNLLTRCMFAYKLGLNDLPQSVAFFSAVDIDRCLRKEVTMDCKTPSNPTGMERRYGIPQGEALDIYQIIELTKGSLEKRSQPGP
T1 sequence (Q9UHN1 1-485 partner): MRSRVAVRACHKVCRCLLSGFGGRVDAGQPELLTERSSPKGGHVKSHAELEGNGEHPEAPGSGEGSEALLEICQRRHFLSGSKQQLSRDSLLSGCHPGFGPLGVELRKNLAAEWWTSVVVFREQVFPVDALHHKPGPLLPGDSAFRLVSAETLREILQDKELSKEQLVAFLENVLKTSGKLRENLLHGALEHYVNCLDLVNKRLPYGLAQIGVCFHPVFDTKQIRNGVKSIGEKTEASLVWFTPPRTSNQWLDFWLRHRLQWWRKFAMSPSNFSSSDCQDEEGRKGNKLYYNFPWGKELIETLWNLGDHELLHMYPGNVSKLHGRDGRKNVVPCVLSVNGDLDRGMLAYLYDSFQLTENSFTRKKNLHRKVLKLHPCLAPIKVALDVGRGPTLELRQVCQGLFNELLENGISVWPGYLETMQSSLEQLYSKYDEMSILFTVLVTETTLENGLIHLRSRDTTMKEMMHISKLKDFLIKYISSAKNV
Assay type: biochemical
Procedure: DNA Polymerization Assay to Monitor Effects on Human Wildtype POLγ and Four Disease-Causing Mutant Variants of Human POLγ.
The ability of small molecules to stimulate the polymerase activity of POLγ was analyzed in a quantitative fluorescence SYBR Green I assay with fluorescence intensity (FI) readout.
In the presence of dNTPs, wild type human POLγ and mutant derivatives thereof were incubated with single-stranded, circular M13mp18 ssDNA hybridized to a short DNA oligonucleotide that functions as a primer for initiation of DNA synthesis. POLγ and mutant derivatives thereof will extend the primer and use the M13mp18 molecule as a template to synthesize long stretches of double-stranded DNA. SYBR Green I, which is a double-stranded DNA-binding dye, was used to quantify formation of double-stranded DNA in the reaction. When bound to double-stranded DNA, SYBR Green I fluorescence increases by up to 100-fold.
The assay was performed in the 384-well plate format. Upon addition of compounds, changes in double-stranded DNA synthesis activity can be monitored by following effects on fluorescent intensity.
The reactions also contained the accessory POLγB subunit, and the human mitochondrial single-stranded DNA binding protein (mtSSB).
The DNA template mixture used in the assay contained 0.5 nM primed M13 mp18 ssDNA, 400 nM mtSSB, 0.1 mM Tris-HCl (pH 8.0), 0.1 mM dNTP, 10 mM MgCl2, 0.1 mg/mL BSA, 1 mM TCEP solution, and 0.02% Triton X-100. The DNA template mixture for the wild type protein contained either 100 μM dNTP, 1 μM dNTP, or 0.1 μM dNTP, designated in Table 2 as 100 μM, 1 μM, and 0.1 μM, respectfully.
Microplates with compounds (0.1 μL in each well) to be tested in the assay were prepared from 10 mM compound stocks in 100% DMSO, and equal amounts of DMSO without any compound were added to positive and negative control wells.
The protein mixture was dispensed (5 μL into each well) into compound plates and incubated at 37° C. for 15 minutes. After incubation, 5 μL of the DNA template mixture was dispensed into each well. The plates were then incubated at 37° C. for 2 hours.
During incubation, a combined stop buffer and detection reagent solution was prepared. The buffer contained 25 mM EDTA (pH 8.0), 0.02% Triton X-100, and SYBR Green I [Invitrogen] diluted 10,000× (for fluorescent readout). EDTA will stop the enzymatic reaction by chelating magnesium ions.

Row | Compound | AC50 [µM]
1 | Cc1cc(S(=O)(=O)Nc2cccc(C(=O)N3CCC[C@H]3C)c2)c(C)cc1Cl [Example 10, (R)-4-chloro-2,5-dimethyl-N-(3-(2-methylpyrrolidine-1-carbonyl)phenyl)benzenesulfonamide] | 2
2 | Cc1cc(S(=O)(=O)Nc2cccc(C(=O)NCc3ccccc3)c2)c(C)cc1Cl [Example 11, N-benzyl-3-((4-chloro-2,5-dimethylphenyl)sulfonamido)benzamide] | 19
3 | Cc1cc(S(=O)(=O)Nc2cc(F)cc(C(=O)N3CCC[C@H]3C)c2)c(C)cc1Cl [Example 13, (R)-4-chloro-N-(3-fluoro-5-(2-methylpyrrolidine-1-carbonyl)phenyl)-2,5-dimethylbenzenesulfonamide] | 4

The next lines start with the values.

Row | AC50 [µM] | Compound
4 | 2 | Cc1cc(S(=O)(=O)Nc2cccc(-c3ncc(C#N)s3)c2)c(C)cc1Cl [Example 96, 4-chloro-N-(3-(5-cyanothiazol-2-yl)phenyl)-2,5-dimethylbenzenesulfonamide]
5 | > 100 | Cc1cnc(-c2ccc(C)c(NS(=O)(=O)c3cc(C)c(Cl)cc3C)c2)s1 [Example 98, 4-chloro-2,5-dimethyl-N-(2-methyl-5-(5-methylthiazol-2-yl)phenyl)benzenesulfonamide]
6 | > 100 | Cc1cnc(-c2cc(NS(=O)(=O)c3cc(C)c(Cl)cc3C)ccc2C)s1 [Example 103, 4-chloro-2,5-dimethyl-N-(4-methyl-3-(5-methylthiazol-2-yl)phenyl)benzenesulfonamide]
